Results as given in EP3722296B1, “DIHYDRONAPHTHYRIDINES AND RELATED COMPOUNDS USEFUL AS KINASE INHIBITORS FOR THE TREATMENT OF PROLIFERATIVE DISEASES” (Deciphera Pharmaceuticals, LLC, priority 2012, dated 2013).

Experiments:
[1] = molecular target: T1, c-KIT VVDV kinase (Homo sapiens, UniProt P10721, D816V/DEL559-560); test: cKIT-VVDV kinase Assay; assay type: biochemical; settings: enzymatic assay; V559+V560 deletions and D816V mutation
T1 construct: This construct contains residues T544-V976 of cKit; GST (N); TEV cleavage site (internal); purchased deCODE Biostructures
T1 sequence (P10721 with tags, fused parts or gaps DEL559-560/D816V): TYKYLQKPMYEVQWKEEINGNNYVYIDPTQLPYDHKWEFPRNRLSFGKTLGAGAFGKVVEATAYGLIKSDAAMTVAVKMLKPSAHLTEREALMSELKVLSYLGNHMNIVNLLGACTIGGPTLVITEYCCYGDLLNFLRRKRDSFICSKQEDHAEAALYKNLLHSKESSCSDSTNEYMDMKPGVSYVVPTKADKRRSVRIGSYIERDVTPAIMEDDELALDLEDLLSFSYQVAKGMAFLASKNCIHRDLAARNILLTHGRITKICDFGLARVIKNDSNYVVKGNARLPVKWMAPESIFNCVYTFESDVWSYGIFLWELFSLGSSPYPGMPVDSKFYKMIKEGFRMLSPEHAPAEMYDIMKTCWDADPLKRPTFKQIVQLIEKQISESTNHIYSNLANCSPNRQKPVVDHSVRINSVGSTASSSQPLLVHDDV
Summary of the method: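 Coupled spectrophotometric format: kinase activity followed as NADH oxidation, loss of absorbance at 340 nm. Serially diluted compound mixed with the reaction mixture to start; read continuously for 5 h at 30 °C.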

[2] = tested on: GIST T1 cells; test: GIST T1 Cell Proliferation Assay; assay type: cell-based; settings: Homo sapiens, GISTT1, 72 h, 68 hours + 4 hours resazurin
[3] = molecular target: T2, c-KIT D816V kinase (Homo sapiens, UniProt P10721, D816V); test: c-KIT D816V kinase Assay; assay type: biochemical; settings: enzymatic assay, ATP 200 uM
T2 construct: residues T544-V976 with N-terminal GST fusion; purchased deCODE Biostructures
T2 sequence (P10721 544-976 D816V): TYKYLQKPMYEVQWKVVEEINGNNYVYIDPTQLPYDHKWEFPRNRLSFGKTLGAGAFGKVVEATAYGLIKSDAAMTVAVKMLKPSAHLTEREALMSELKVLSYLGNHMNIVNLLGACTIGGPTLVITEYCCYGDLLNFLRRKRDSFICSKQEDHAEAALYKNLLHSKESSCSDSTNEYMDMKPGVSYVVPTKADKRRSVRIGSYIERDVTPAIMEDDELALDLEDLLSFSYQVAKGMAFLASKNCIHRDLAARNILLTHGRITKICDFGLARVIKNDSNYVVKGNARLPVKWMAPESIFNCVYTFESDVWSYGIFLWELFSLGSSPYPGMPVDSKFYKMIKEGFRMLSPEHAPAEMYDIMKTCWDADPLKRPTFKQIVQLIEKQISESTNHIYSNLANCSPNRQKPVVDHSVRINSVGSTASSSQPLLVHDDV
Summary of the method: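 Coupled assay in which NADH oxidation was tracked as decreasing absorbance at 340 nm, continuously for 5 hours at 30 °C after adding serially diluted compound. Enzyme: cKit residues T544-V976 with N-terminal tag, GST fusion and TEV cleavage site.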

[4] = molecular target: T3, Phospho-KIT (Tyr719) (Homo sapiens, UniProt P10721, DEL560-578); test: GIST T1 KIT Western Blot; assay type: cell-based; settings: GIST T1 cells, 4 hours, serum-free medium; read-out: pKIT suppression by western blot analysi GIST T1
T3 construct: endogenous in cells; host or cells: GIST T1
T3 sequence (P10721 with tags, fused parts or gaps DEL560-578): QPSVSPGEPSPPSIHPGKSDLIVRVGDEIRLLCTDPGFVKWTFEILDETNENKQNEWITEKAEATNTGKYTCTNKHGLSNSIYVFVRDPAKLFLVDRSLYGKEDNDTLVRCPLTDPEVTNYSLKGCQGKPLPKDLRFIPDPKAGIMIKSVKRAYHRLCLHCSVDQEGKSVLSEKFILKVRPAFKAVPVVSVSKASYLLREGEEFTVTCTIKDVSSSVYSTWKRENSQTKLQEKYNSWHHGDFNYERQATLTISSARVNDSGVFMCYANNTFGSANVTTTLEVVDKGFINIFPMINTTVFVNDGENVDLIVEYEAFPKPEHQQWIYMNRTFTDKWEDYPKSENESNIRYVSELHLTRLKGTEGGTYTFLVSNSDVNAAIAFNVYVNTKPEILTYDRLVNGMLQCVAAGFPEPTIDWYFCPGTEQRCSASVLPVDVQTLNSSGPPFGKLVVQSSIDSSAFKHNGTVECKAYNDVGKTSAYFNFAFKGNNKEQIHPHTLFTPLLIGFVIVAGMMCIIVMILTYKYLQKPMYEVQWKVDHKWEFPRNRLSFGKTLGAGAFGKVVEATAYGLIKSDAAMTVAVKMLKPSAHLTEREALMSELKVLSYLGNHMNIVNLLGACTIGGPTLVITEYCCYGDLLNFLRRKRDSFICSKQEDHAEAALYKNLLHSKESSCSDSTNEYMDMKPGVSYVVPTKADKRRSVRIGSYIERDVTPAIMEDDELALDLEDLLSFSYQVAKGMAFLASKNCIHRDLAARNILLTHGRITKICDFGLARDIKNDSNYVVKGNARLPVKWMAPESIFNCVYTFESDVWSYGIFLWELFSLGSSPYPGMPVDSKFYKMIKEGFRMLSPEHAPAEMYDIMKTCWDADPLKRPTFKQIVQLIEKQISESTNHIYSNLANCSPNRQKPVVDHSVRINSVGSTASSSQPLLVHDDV
Protocol: GIST48, GIST430, and GIST882 cells were obtained from J. Fletcher (Brigham and Women's Hospital, Boston, MA). GIST T1 cells were obtained from B. Rubin (Cleveland Clinic, Cleveland, OH) and Professor Takahiro Taguchi (Kochi Medical School, Nankoku, Kochi, Japan). […] GIST430 cells were grown in Ham's F10 medium supplemented with 15% characterized fetal bovine serum (Invitrogen, Carlsbad, CA), 30 mg/L bovine pituitary extract (BD Biosciences, San Jose, CA), 0.5% Mito+ serum extender (BD Biosciences, San Jose, CA), 1 unit/mL penicillin G, 1 µg/ml streptomycin, and 0.29 mg/mL L-glutamine at 37 °C, 5%CO2, 95% humidity. GIST T1 cells were grown in DMEM medium supplemented with 10% characterized fetal bovine serum (Invitrogen, Carlsbad, CA), 1 unit/mL penicillin G, 1 µg/ml streptomycin, and 0.29 mg/mL L-glutamine at 37 °C, 5% CO2, and 95% humidity. Cells were allowed to expand until reaching 70-95% confluence at which point they were subcultured or harvested for assay use.
One hundred twenty-five thousand cells were added per well in a 24-well tissue-culture treated plate. Cells were then incubated overnight at 37°C, 5% CO2, 95% humidity. Medium was aspirated, cells were washed with PBS, and serum-free DMEM medium was added. A serial dilution of test compound was added to plates containing cells and plates were incubated for 4 hours at 37°C, 5% CO2, 95% humidity. Cells were washed with PBS, then lysed. Cell lysates were separated by SDS-PAGE and transferred to PVDF. Phospho-KIT (Tyr719) was detected using an antibody from Cell Signaling Technology (Beverly, MA), ECL Plus detection reagent (GE Healthcare, Piscataway, NJ) and a Molecular Devices Storm 840 phosphorimager in fluorescence mode. Blots were stripped and probed for total KIT using an antibody from Santa Cruz Biotech (Santa Cruz, CA). IC50 values were calculated using Prism software (Graphpad, San Diego, CA).

[5] = molecular target: T4, c-KIT T670I kinase (Homo sapiens, UniProt P10721, T670I); test: c-KIT T670I kinase assay; assay type: biochemical; settings: enzymatic assay
T4 construct: The construct contains residues T544-V976 of cKit; GST (N); TEV cleavage site (internal); purchased deCODE Biostructures
T4 sequence (P10721 544-976 T670I): as the sequence (P10721 544-976 D816V) above, with T127I, V273D counted along it
Summary of the method: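 Enzyme: GST-fused, N-terminally tagged cKit bearing T670I, with TEV cleavage site. Reaction started by mixing compound dilutions with reaction mix; activity read continuously over 5 h at 30 °C as loss of 340 nm absorbance from NADH consumption.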

SMILES | IC50 [1] [nM] | IC50 [3] [nM] | IC50 [4] [nM] | IC50 [5] [nM] | IC50 [2] [nM]
CCn1c(=O)c(-c2cc(NC(=O)Nc3ccccc3)c(F)cc2Cl)cc2cnc(NC(C)=O)cc21 [Example 54, 1-(5-(7-acetamido-1-ethyl-2-oxo-1,2-dihydro-1,6-naphthyridin-3-yl)-4-chloro-2-fluorophenyl)-3-phenylurea] | < 10 | < 10 | < 10 | 10 to 100 | < 10
CCn1c(=O)c(-c2cc(NC(=O)Nc3cccc(F)c3)c(F)cc2C)cc2cnc(NC)cc21 [Example 44, 1-(5-(1-ethyl-7-(methylamino)-2-oxo-1,2-dihydro-1,6-naphthyridin-3-yl)-2-fluoro-4-methylphenyl)-3-(3-fluorophenyl)urea] | 10 to 100 | 10 to 100 | < 10 | 10 to 100 | < 10
CCn1c(=O)c(-c2cc(NC(=O)Nc3cccc4ccccc34)c(F)cc2Cl)cc2cnc(NC)cc21 [Example 6, 1-(4-chloro-5-(1-ethyl-7-(methylamino)-2-oxo-1,2-dihydro-1,6-naphthyridin-3-yl)-2-fluorophenyl)-3-(naphthalen-1-yl)urea] | < 10 | 10 to 100 | 10 to 100 | < 10 | 10 to 100
CCn1c(=O)c(-c2cc(NC(=O)Nc3csc4ccccc34)c(F)cc2C)cc2cnc(NC)cc21 [Example 59, 1-(benzo[b]thiophen-3-yl)-3-(5-(1-ethyl-7-(methylamino)-2-oxo-1,2-dihydro-1,6-naphthyridin-3-yl)-2-fluoro-4-methylphenyl)urea] | 10 to 100 | 10 to 100 | < 10 | 10 to 100 | 10 to 100
CCn1c(=O)c(-c2cc(NC(=O)Nc3ccccc3)c(F)cc2Cl)cc2cnc(NC(=O)N(C)C)cc21 [Example 70, 3-(3-(2-chloro-4-fluoro-5-(3-phenylureido)phenyl)-1-ethyl-2-oxo-1,2-dihydro-1,6-naphthyridin-7-yl)-1,1-dimethylurea] | < 10 | < 10 | < 10 | < 10 | < 10
CCn1c(=O)c(-c2cc(NC(=O)Nc3cccc(F)c3)c(F)cc2Cl)cc2cnc(NCCOC)cc21 [Example 28, 1-(4-chloro-5-(1-ethyl-7-(2-methoxyethylamino)-2-oxo-1,2-dihydro-1,6-naphthyridin-3-yl)-2-fluorophenyl)-3-(3-fluorophenyl)urea] | 10 to 100 | 10 to 100 | < 10 | 10 to 100 | 10 to 100
CCn1c(=O)c(-c2cc(NC(=O)Nc3ccccc3)c(F)cc2Br)cc2cnc(N)cc21 [Example 57, 1-(5-(7-amino-1-ethyl-2-oxo-1,2-dihydro-1,6-naphthyridin-3-yl)-4-bromo-2-fluorophenyl)-3-phenylurea] |  | 100 to 1000 | < 10 | < 10 | < 10

Now from value to molecule, other results behind:

IC50 [1] [nM] | IC50 [3] [nM] | IC50 [4] [nM] | IC50 [5] [nM] | SMILES | IC50 [2] [nM]
< 10 | 10 to 100 | < 10 | 10 to 100 | CCn1c(=O)c(-c2cc(NC(=O)Nc3ccccc3)c(F)cc2Cl)cc2cnc(NC)cc21 [Example 3, 1-(4-chloro-5-(1-ethyl-7-(methylamino)-2-oxo-1,2-dihydro-1,6-naphthyridin-3-yl)-2-fluorophenyl)-3-phenylurea] | < 10
100 to 1000 | 10 to 100 | < 10 | 10 to 100 | CCn1c(=O)c(-c2cc(NC(=O)Nc3cccc(F)c3)c(F)cc2Br)cc2cnc(NC)cc21 [Example 50, 1-(4-bromo-5-(1-ethyl-7-(methylamino)-2-oxo-1,2-dihydro-1,6-naphthyridin-3-yl)-2-fluorophenyl)-3-(3-fluorophenyl)urea] | 10 to 100
< 10 | < 10 | < 10 | < 10 | CCn1c(=O)c(-c2cc(NC(=O)Nc3cccc(F)c3)c(F)cc2Cl)cc2cnc(N)cc21 [Example 20, 1-(5-(7-amino-1-ethyl-2-oxo-1,2-dihydro-1,6-naphthyridin-3-yl)-4-chloro-2-fluorophenyl)-3-(3-fluorophenyl)urea] | 
